According to patent US20220213113A1, “NITROGEN-CONTAINING CONDENSED CYCLIC COMPOUNDS, FLUORESCENCE EMITTERS, ORGANIC ELECTROLUMINESCENT DEVICES, AND MATERIALS FOR ORGANIC ELECTROLUMINESCENT DEVICES” (Samsung Electronics Co., Ltd., priority 2020, published 2022):
In brackets after ≈: the same amount, converted by molar mass.

Test: Evaluation of solubility in mesitylene
Type: physicochemical
Conditions: organic solvent or mixture, thermodynamic from solid; 10 mg compound in test tube, heated at 160° C., mesitylene added until completely dissolved
Method: 10 mg of the obtained Compounds D1 to D9 and Comparative Compound C1 were each placed in a test tube, mesitylene was added thereto, and were heated at a temperature of 160° C. Mesitylene was added thereto until the compounds were completely dissolved and the solubility was calculated.

solubility [µg/mL]	SMILES
1000 (≈ 1.5 mM)	CC(C)(C)c1ccc(-c2ccc3c4c5c6ccccc6n6c7cc(-c8ccc(C(C)(C)C)cc8)ccc7c(c7c8ccccc8n(c3c2)c74)c56)cc1 [Compound D3]
1000 (≈ 1.12 mM)	CC(C)(C)c1cc(-c2ccc3c4c5c6cc(C(C)(C)C)ccc6n6c7cc(-c8cc(C(C)(C)C)cc(C(C)(C)C)c8)ccc7c(c7c8cc(C(C)(C)C)ccc8n(c3c2)c74)c56)cc(C(C)(C)C)c1 [Compound D6]
10100 (≈ 11.3 mM)	CC(C)(C)c1cc(-c2ccc3c4c5c6ccc(C(C)(C)C)cc6n6c7cc(-c8cc(C(C)(C)C)cc(C(C)(C)C)c8)ccc7c(c7c8ccc(C(C)(C)C)cc8n(c3c2)c47)c56)cc(C(C)(C)C)c1 [Compound D5]
1300 (≈ 1.94 mM)	CC(C)(C)c1ccc(-c2ccc3c(c2)c2c4c5ccccc5n5c6ccc(-c7ccc(C(C)(C)C)cc7)cc6c(c6c7ccccc7n3c62)c45)cc1 [Compound D2]
10300 (≈ 13.2 mM)	CC(C)(C)c1cc(-c2cccc3c4c5c6ccccc6n6c7c(-c8cc(C(C)(C)C)cc(C(C)(C)C)c8)cccc7c(c7c8ccccc8n(c23)c74)c56)cc(C(C)(C)C)c1 [Compound D8]
2000 (≈ 3.12 mM)	Cc1cc(C)c(-c2ccc3c(c2)c2c4c5ccccc5n5c6ccc(-c7c(C)cc(C)cc7C)cc6c(c6c7ccccc7n3c62)c45)c(C)c1 [Compound D1]
3100 (≈ 3.6 mM)	c1ccc(-c2cccc(-c3ccccc3)c2-c2ccc3c4c5c6ccccc6n6c7cc(-c8c(-c9ccccc9)cccc8-c8ccccc8)ccc7c(c7c8ccccc8n(c3c2)c74)c56)cc1 [Compound D7]
3000 (≈ 3.21 mM)	CC(C)(C)c1cc(-c2ccc3c4c5c6cccc(-c7ccccc7)c6n6c7cc(-c8cc(C(C)(C)C)cc(C(C)(C)C)c8)ccc7c(c7c8cccc(-c9ccccc9)c8n(c3c2)c47)c56)cc(C(C)(C)C)c1 [Compound D9]
3200 (≈ 4.1 mM)	CC(C)(C)c1cc(-c2ccc3c4c5c6ccccc6n6c7cc(-c8cc(C(C)(C)C)cc(C(C)(C)C)c8)ccc7c(c7c8ccccc8n(c3c2)c74)c56)cc(C(C)(C)C)c1 [Compound D4]
